Reference: US20220409629A1, “BENZODIAZEPINE DERIVATIVES FOR TREATING A RESPIRATORY SYNCYTIAL VIRUS (RSV) INFECTION” (priority 2019, published 2022)

Tests used:
Hep-G2 cells = experiment: Cell cytotoxicity CC50; type: cell-based; conditions: mean of at least two experiments
RSV A2 = experiment: RSV plaque reduction assay; type: cell-based, respiratory syncytial virus (RSV); conditions: Hep-G2 cells, RSV A2, mean of at least two experiments
Procedure, shortened: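 RSV A2 (100 PFU/well) premixed with eight serial compound dilutions, added to confluent Hep-G2 monolayers for 2 h at 37° C, then held 2 days under CMC overlay containing compound (DMEM, 2% FBS). Plaques immunostained (HRP/TrueBlue) and counted; EC50 is 50% reduction versus virus control from 4-parameter fit, mean of ≥2 experiments.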

[1] = Liver microsomal stability, human; type: in vitro ADME; conditions: human liver microsomes, 0.5 mg/mL protein, 1 μM compound, NADPH, >80% remaining at 45 min denoted >140
Procedure, shortened: (§1)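 Pooled liver microsomes (0.5 mg/mL protein) in 0.1 M phosphate pH 7.4 with 1 μM compound (0.25% DMSO), started with 1 mM NADPH at 37° C; sampled 0-45 min, minus-NADPH control 45 min. LC-MS/MS depletion slope gave t1/2 and CLint.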

[2] = Liver microsomal stability, dog; type: in vitro ADME; conditions: dog liver microsomes, 0.5 mg/mL protein, 1 μM compound, NADPH, >80% remaining at 45 min denoted >140
Procedure, shortened: as §1

[3] = Liver microsomal stability, rat; type: in vitro ADME; conditions: rat liver microsomes, 0.5 mg/mL protein, 1 μM compound, NADPH, >80% remaining at 45 min denoted >140
Procedure, shortened: as §1

[4] = Liver hepatocyte stability, human; type: in vitro ADME; conditions: human hepatocytes, 3 μM compound, 60 min, >80% remaining at 60 min denoted >186, read-out: Liver Hepatocyte Stability: t1/2 (min)
Method: (§2) Cryopreserved pooled hepatocytes were purchased from a reputable commercial supplier and stored in liquid nitrogen prior to use. Williams E media supplemented with 2 mM L-glutamine and 25 mM HEPES and test compound (final substrate concentration 3 μM; final DMSO concentration 0.25%) are pre-incubated at 37° C. prior to the addition of a suspension of cryopreserved hepatocytes (final cell density 0.5×10^6 viable cells/mL in Williams E media supplemented with 2 mM L-glutamine and 25 mM HEPES) to initiate the reaction. The final incubation volume is 500 μL. Two control compounds were included with each species, alongside appropriate vehicle control. The reactions are stopped by transferring 50 μL of incubate to 100 μL acetonitrile containing internal standard at the appropriate time points. Samples were removed at 6 time points (0, 5, 15, 30, 45 and 60 min) over the course of a 60 min experiment. The termination plates are centrifuged at 2500 rpm at 4° C. for 30 min to precipitate the protein. Following protein precipitation, the sample supernatants were combined in cassettes of up to 4 compounds and analysed using generic LC-MS/MS conditions. From a plot of ln peak area ratio (compound peak area/internal standard peak area) against time, the gradient of the line is determined. Subsequently, half-life (t1/2) and intrinsic clearance (CLint) were calculated.

[5] = Rat pharmacokinetics in vivo; conditions: male Sprague Dawley rats
Method: The pharmacokinetics of compounds were studied in vivo in rats at doses of 1 mg/kg (IV) and 10 mg/kg (PO).
Male rats (Sprague Dawley) surgically prepared with a jugular vein cannula were treated with experimental compounds via intravenous administration (IV; n=3; 1 mg/kg) or oral administration (PO; n=3; 10 mg/kg). Compounds were formulated as a solution in 40:60 dimethylacetamide:saline (IV administration), a suspension in 1% methyl cellulose (viscosity: 15 cP), 0.1% Tween80 in water (PO administration: Example 3), a solution in 10% DMSO/10% Cremaphor/80% water (PO administration: Examples 4, 11, 21, 23, 25, 26, 32) or a solution in 10% DMSO/20% Cremaphor/70% water (PO administration: Examples 19, 20, 22, 24, 30). […] Serial blood samples were collected via the cannula at 0.02, 0.08, 0.25, 0.5, 1, 2, 4, 6, 8 and 24 h post IV dosing of compound, and at 0.08, 0.25, 0.5, 1, 2, 4, 6, 8 and 24 h post oral dosing of compound, and plasma was prepared by centrifugation and stored immediately at −80° C. Samples were subsequently thawed, prepared for analysis by protein precipitation with acetonitrile, and analysed by tandem LCMS using electrospray ionisation using a matrix-matched calibration curve. PK parameters were calculated from the resulting data.

Cell cytotoxicity CC50 = type: cell-based; conditions: human; mean of at least two experiments
[6] = Liver hepatocyte stability, rat; type: in vitro ADME; conditions: rat hepatocytes, 3 μM compound, 60 min, >80% remaining at 60 min denoted >186, read-out: Liver Hepatocyte Stability: t1/2 (min)
Method: as §2

[7] = Liver hepatocyte stability, dog; type: in vitro ADME; conditions: dog hepatocytes, 3 μM compound, 60 min, >80% remaining at 60 min denoted >186, read-out: Liver Hepatocyte Stability: t1/2 (min)
Method: as §2

RSV = conditions: Antimicrobial Agents and Chemotherapy, September 2007, 3346-3353; cited from earlier work

Molecule: 3-[6-(Cyclopropylamino)-2-fluoropyridin-3-yl]-1-(oxetan-3-yl)-N-[(3S)-2-oxo-5-phenyl-1,3-dihydro-1,4-benzodiazepin-3-yl]pyrazole-4-carboxamide [Example 37]
- CC50 (Hep-G2 cells): > 25 µM
- EC50 (RSV A2): 78 nM

Molecule: 3-[6-(Cyclopropylamino)-2-fluoropyridin-3-yl]-N-[(3S)-9-fluoro-2-oxo-5-phenyl-1,3-dihydro-1,4-benzodiazepin-3-yl]-1-(oxetan-3-yl)pyrazole-4-carboxamide [Example 36]
- CC50 (Hep-G2 cells): > 25 µM
- Liver Microsomal Stability: t1/2 (min); human [1]: 68.5 min
- EC50 (RSV A2): 45 nM
- Liver Microsomal Stability: t1/2 (min); dog [2]: 191 min
- Liver Microsomal Stability: t1/2 (min); rat [3]: 93.2 min

Molecule: O=C(N[C@H]1N=C(c2ccccc2)c2cccc(F)c2NC1=O)c1cn(C2CCOCC2)nc1-c1ccc(NC2CC2)nc1F [Example 32, 3-[6-(Cyclopropylamino)-2-fluoropyridin-3-yl]-N-[(3S)-9-fluoro-2-oxo-5-phenyl-2,3-dihydro-1H-1,4-benzodiazepin-3-yl]-1-(oxan-4-yl)-1H-pyrazole-4-carboxamide]
- half-life [4]: > 186 min
- C 8 h ([5]; 8 h, doses 1 mg/kg (IV) and 10 mg/kg (PO)): 84 ng/mL
- Vd ([5]; rat, in vivo, IV 1 mg/kg): 1.1 L/kg
- clearance ([5]; rat, in vivo, IV 1 mg/kg): 17.7 mL/min/kg
- bioavailability ([5]; rat, in vivo, IV 1 mg/kg, PO 10 mg/kg): 19.3%
- half-life ([5]; rat, in vivo, IV 1 mg/kg, read-out: IV t½ (converted)): 72 min
- AUC(0-t) ([5]; rat, in vivo, PO 10 mg/kg, read-out: PO AUClast): 1940 ng·h/mL
- half-life ([5]; rat, in vivo, PO 10 mg/kg, read-out: PO t½ (converted)): 312 min
- Cmax ([5]; rat, in vivo, doses 1 mg/kg (IV) and 10 mg/kg (PO)): 452 ng/mL
- CC50 (Cell cytotoxicity CC50): > 25 µM
- half-life ([1]; pH 7.4, read-out: Liver Microsomal Stability: t1/2 (min), human): 298 min
- EC50 (RSV A2; human respiratory syncytial virus, HepG2): 58 nM
- half-life [6]: 376 min
- half-life ([2]; pH 7.4, read-out: Liver Microsomal Stability: t1/2 (min), dog): 331 min
- half-life ([3]; pH 7.4, read-out: Liver Microsomal Stability: t1/2 (min), rat): 127 min
- half-life [7]: > 186 min

Molecule: O=C(Nc1ccccc1F)N[C@H]1N=C(c2ccccc2)c2ccccc2NC1=O [RSV604]
- anti-RSV activity (RSV): sub-micromolar
